Test results reported in PMC7024221, “The Application of Reversible Intramolecular Sulfonamide Ligation to Modulate Reactivity in Organometallic Ruthenium(II) Diamine Complexes” (Molecules, 2020).
Entries after “also recorded” stand apart in the source; their conditions may differ. Where two headings read alike, the source gives them in different places. Marks after values point to notes of the source that are not given here.

Columns and labels:
[1] = cited from earlier work
[2] = set-up: method as in doi:10.1021/acs.organomet.7b00868; conditions: R = Ms, Tf; reported previously; cited from earlier work
[3] = Solution stability (NaCl, arene loss on standing of NMR solution); format: physicochemical; conditions: standing for extended periods of time (>24 h)
Protocol: A total of six half-sandwich ruthenium(II) arene complexes were synthesized for evaluation in this study (Figure 2). [Ru(η^6-C6H5CH2CH2NHR)(en)(Cl)]PF6 (R = Ms (1), tresyl (Tr) (2), Tf (3) or acetyl (6)) and [Ru(η^6-C6H5(CH2)3CH2NHTf)(en)(Cl)]PF6 (5) were prepared via reaction of the respective [RuCl2(η^6-C6H5(CH2)nCH2NHR)]2 (R = acetyl, Ms, Tf or Tr) complex with ethylenediamine followed by the addition of NH4PF6 then crystallization of the product by concentration of the methanol solution or via vapor diffusion with diethyl ether. [Ru(η^6:κ^1-C6H5(CH2)2CH2NTf)(en)]PF6 (4) was prepared via the reaction of [RuCl2(η^6-C6H5(CH2)2CH2NHTf)]2 with ethylenediamine then treatment with silver carbonate and triethylamine, followed by addition of NH4PF6 and precipitation of the product by concentration and cooling. All complexes are soluble in water (≥5 mM) and stable in the presence of NaCl (100 mM). All complexes were characterized by ^1H, ^13C and ^19F NMR spectroscopy, high resolution mass spectrometry and elemental analysis.
During these studies it was observed that for 1–3 arene-ruthenium cleavage began to occur on standing of the NMR solution for even relatively short periods of time (>1 h) (Figures S12–S14).

[4] = pH titration by 1H/19F NMR of open and chelate forms (apparent pKa); format: physicochemical; conditions: 2.46 mM complex, D2O, 0.1 M NaCl; for Apparent pKa: Henderson-Hasselbalch fit of % open form versus pD
Protocol: The ability of the tethered sulfonamide functionality to reversibly ligate to the ruthenium atom in a pH-dependent manner, forming an intramolecular chelate, was examined by recording ^1H NMR spectra of 1–5 (and ^19F NMR spectra for 2–5) (2.46 mM complex, D2O, […], 0.1 M NaCl) as a function of pH. Within these spectra two unique sets of signals were observed, the relative proportion of these being pH-dependent, that were assigned to the open and chelate forms of the complexes (Figures S12–S15). Plotting the percentage of open form of the complex, calculated from the ratio of selected ligand signals corresponding to the open and chelate forms of the complexes, versus pD yielded sigmoidal curves in each case and apparent pKa values for 1–5 (Table 1) were determined by fitting of the Henderson-Hasselbalch equation to the data (Figure 7 and Figure 8).
pH titrations of 1–6 and [Ru(η^6-C6H5CH2CH2NHTr)(C2O4)(H2O)] were conducted by adjustment of the pD of solutions of the complexes (2.46 mM, 295 K, 0.1 M NaCl) in D2O through addition of 1–5 µL aliquots of NaOD (3.6 wt.%) and DCl (1.8 wt.%) solutions in D2O. Following pD adjustment the solutions were left to equilibrate (for 1–6 this was up to 36 h) then the ^1H and ^19F spectra of each were recorded. The ratio of selected ligand signals (for example –CH3 for 1, arene resonances for 2, –CF3 for 3–5) corresponding to the open- and chelate-forms of the complex were determined for each pD value and enabled a plot of % open-form versus pD. pKa values were calculated through fitting of the Henderson-Hasselbalch equation to the data.

HT-29 cell line = test: MTT cytotoxicity assay; format: cell-based, human; conditions: HT-29, concentrations up to 100 µM, 72 h
Protocol: Having established the ability of 4 to coordinate to biologically relevant ligands in a pH-dependent manner we evaluated the cytotoxicity of 4 (and 6 as a control unable to form an intramolecular chelate) against the HT-29 cell line using the MTT assay. In light of the potential non-covalent interaction of 4 with protein as described earlier these assays were performed for both 4 and 6 using media containing 10% and 1% fetal calf serum to assess the effect of serum concentration on cytotoxicity. […] It is clear that while 6 is readily able to coordinate to 5′-GMP and L-histidine, and presumably forms biomacromolecular adducts in cell culture experiments, the nature and/or level of adducts formed is not detrimental to HT-29 cell viability. The ability of 4 to form biomacromolecular adducts in cell culture conditions will be less than that of 6 due to substantial intramolecular sulfonamide ligation under these pH conditions. […]
HT-29 (human colon adenocarcinoma) cells were counted and the concentration adjusted to 3 × 10^4 cells/.mL 100 µL of the cell suspension was dispensed into the wells of a 96 well plate. […] The results were read on a plate reader (Biotek ELX800 Universal Microplate Reader) at 570 nm. The viability of the cells is expressed as % of cell survival of each dilution against the “cells only” control taken as 100% survival. […]

5′-GMP = test: NMR binding study with the model ligand 5′-GMP; conditions: 1 eq. 5′-GMP, 2.46 mM complex, phosphate buffer 0.2 M, 310 K, 0.1 M NaCl
Protocol: (§1) The coordination of a metallodrug, via the metal ion, to biomacromolecular targets is a major mechanism by which biological activity is exerted in many of these complexes. To evaluate the ability of intramolecular sulfonamide ligation to regulate the availability of a coordination site at the ruthenium ion in this family of complexes, and therefore control ligation of endogenous ligands to the complex, binding studies were performed between 4 (and the control compound 6) and the model ligands L-histidine and 5′-GMP. 4 and 6 were incubated with 1 eq. of 5′-GMP or L-histidine (2.46 mM complex, phosphate buffer (0.2 M), 310 K, 0.1 M NaCl) for 144 h at pD values of 7.5 and 6.5 in each case. Incubations were monitored by ^1H and ^19F NMR. […] The degree of L-histidine coordination was not able to be quantified using ^1H NMR due to hydrogen-deuterium exchange which occurs at the histidine C2 proton and low intensity and overlapping peaks, but was more pronounced at pD 7.5 than pD 6.5. […]
(§2) The reactivity of 4 and 6 towards 5′-GMP/L-histidine was assessed by mixing stock solutions of the complex and ligand in phosphate buffer (both in D2O, 0.1 M NaCl) to yield 1:1 solutions with each component present at a concentration of 2.46 mM (200 mM buffer concentration, 0.1 M NaCl). […] Samples were incubated at 310 K and monitored using ^1H and ^19F NMR. […]

bovine serum albumin = bovine serum albumin (Bos taurus, UniProt P02769); test: Incubation with bovine serum albumin monitored by 1H and 19F NMR; conditions: 72 h, 2.46 mM complex, 0.5 mM BSA, 310 K, pD 7.4
bovine serum albumin, sequence (P02769 25-607): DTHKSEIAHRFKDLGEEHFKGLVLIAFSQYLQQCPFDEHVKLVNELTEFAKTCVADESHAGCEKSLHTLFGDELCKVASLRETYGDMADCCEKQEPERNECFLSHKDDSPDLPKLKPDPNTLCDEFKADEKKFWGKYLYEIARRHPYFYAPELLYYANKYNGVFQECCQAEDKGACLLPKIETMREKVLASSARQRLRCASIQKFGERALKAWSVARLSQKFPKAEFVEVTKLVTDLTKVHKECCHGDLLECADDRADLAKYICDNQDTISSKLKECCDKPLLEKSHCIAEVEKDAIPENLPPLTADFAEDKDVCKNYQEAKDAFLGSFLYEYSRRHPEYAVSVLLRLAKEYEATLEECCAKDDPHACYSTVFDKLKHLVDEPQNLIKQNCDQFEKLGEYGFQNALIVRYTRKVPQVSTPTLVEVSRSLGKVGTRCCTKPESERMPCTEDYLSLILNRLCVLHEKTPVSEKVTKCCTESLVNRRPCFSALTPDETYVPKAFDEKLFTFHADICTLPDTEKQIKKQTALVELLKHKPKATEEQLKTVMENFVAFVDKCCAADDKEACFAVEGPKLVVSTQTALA

[5] = NMR binding study with the model ligand L-histidine; conditions: 1 eq. L-histidine, 2.46 mM complex, phosphate buffer 0.2 M, 310 K, 0.1 M NaCl
Protocol: as §1, §2

[6] = Conversion of chelate form to open form in citrate/phosphate buffer, 19F NMR; format: physicochemical; conditions: 310 K
Protocol: To gain further insight into the reactivity of 4 the conversion of the chelate form to open form of the complex was probed in three different citrate/phosphate buffer solutions at 310 K (Figure 9). Aqueous solutions of 4 at pD 7.61 (where the chelate form of the complex exists exclusively) were diluted into citrate/phosphate buffer to yield solutions at pD 4.12, 4.91 and 5.96 (2.46 mM complex, 0.1 M NaCl). The conversion of the chelate form to the open form was monitored by ^19F NMR spectroscopy over 16 h. Under the most acidic conditions (pD 4.12) equilibrium was reached within the 16 h experiment duration, with 93% of 4 converting to the open form.
The conversion of the chelate-form of 4 to the activated open-form was investigated by dilution of a stock solution of 4 (D2O, 0.1 M NaCl) into citrate/phosphate buffer solutions (D2O, 0.1 M NaCl) at pD 4.12, 4.91 and 5.96 to yield solutions at a final complex concentration of 2.46 mM. The samples were maintained at 310 K within the NMR spectrometer and ^19F NMR spectra were recorded every 15 min for 16 h. The ratio of the –CF3 signals corresponding to the open- and chelate-forms of the complex were determined to allow a plot of % open-form versus time. The fitting of the equation y = C + A(1−e^−kx) (C-offset from zero; A-amplitude of the curve) to each set of experimental data yielded the half-life for the fraction of the chelate-form of 4 which is converted to the open-form.

N[C@@H](Cc1c[nH]cn1)C(=O)O [L-histidine]
side chain pKa ([1]; imidazole): 6.07

[Ru(η^6-C6H5CH2CH2NHMs)(C2O4)(H2O)]
Apparent pKa for the Analogous [Ru(η^6-C6H5CH2CH2NHR)(C2O4)(H2O)] Complex [2]: 6.65 ^‡

Nc1nc2c(ncn2[C@@H]2O[C@H](COP(=O)([O-])[O-])[C@@H](O)[C@H]2O)c(=O)[nH]1.[Na+].[Na+] [5′-GMP, guanosine 5′-monophosphate disodium salt]
pKa of the N7 position [1]: 2.57

[Ru(η^6-C6H5CH2CH2NHTf)(C2O4)(H2O)]
Apparent pKa for the Analogous [Ru(η^6-C6H5CH2CH2NHR)(C2O4)(H2O)] Complex [2]: 4.05 ^‡

cis-[PtCl(Me2N(CH2)2PPh2-N,P)(Me2N(CH2)2PPh2-P)]Cl
pKa (ring-open/ring-closed equilibrium, pH titrations) [1]: 6.9

[Ru(η^6-C6H5(CH2)3CH2NHTf)(en)(Cl)]PF6 [Complex 5]
Arene loss on standing of the NMR solution [3]: not observed
Apparent pKa [4]: 8.00

[Ru(η^6-C6H5CH2CH2NHTr)(C2O4)(H2O)]
Apparent pKa for the Analogous [Ru(η^6-C6H5CH2CH2NHR)(C2O4)(H2O)] Complex ([4]; R = Tr, 295 K): 5.75

[Ru(η^6:κ^1-C6H5(CH2)2CH2NTf)(en)]PF6 [Complex 4]
Arene loss on standing of the NMR solution [3]: not observed
Inhibition of cell growth (MTT) (HT-29 cell line; media with 1% fetal calf serum): no significant inhibition of cell growth
Inhibition of cell growth (MTT) (HT-29 cell line; media with 10% fetal calf serum): no significant inhibition of cell growth
Apparent pKa [4]: 4.82
5′-GMP coordinated to the complex (5′-GMP; pD 6.5, 144 h): 16 ± 1.6%
5′-GMP coordinated to the complex (5′-GMP; pD 7.5, 144 h): no coordination
Non-covalent interaction with bovine serum albumin (1H NMR signals broader and slightly shifted) (bovine serum albumin): non-covalent interactions between 4 and the protein may be occurring
Reactivity (covalent interaction) towards bovine serum albumin (bovine serum albumin; phosphate buffer 0.2 M, 0.1 M NaCl): lack of reactivity; also recorded: no covalent interaction
Coordination of L-histidine to the complex ([5]; pD 6.5, 144 h): lack of reactivity; also recorded: No coordination
Coordination of L-histidine to the complex ([5]; pD 7.5, 144 h): lack of reactivity; also recorded: no coordination
Fraction converted to the open form at equilibrium ([6]; pD 4.12, equilibrium reached within 16 h, 2.46 mM complex, 0.1 M NaCl): 93%
Open form present at equilibrium (from data fitting) ([6]; pD 4.91, equilibrium not reached within 16 h): 61%
Open form present at equilibrium (from data fitting) ([6]; pD 5.96, equilibrium not reached within 16 h): 24%
